Experimental data taken from PubChem BioAssay (NCI).
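In this assay, cells in 96-well plates receive the compound at five concentrations for 48 hours. Endpoints are linearly interpolated between the surrounding concentrations. At the TGI there is no net growth.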

Assays:
Assay in all cases: NCI anticancer screen, dose series, 48 h
NCI-H23 lung = system: NCI-H23 lung
SK-MEL-2 melanoma = system: SK-MEL-2 melanoma
SW-620 colon = system: SW-620 colon
K-562 leukemia = system: K-562 leukemia
HOP-62 NSCLC = system: HOP-62 NSCLC
SNB-19 CNS = system: SNB-19 CNS
A498 renal = system: A498 renal
MDA-MB-231 breast = system: MDA-MB-231 breast
786-0 renal = system: 786-0 renal
HCC-2998 colon = system: HCC-2998 colon
MOLT-4 leukemia = system: MOLT-4 leukemia
UO-31 renal = system: UO-31 renal
UACC-257 melanoma = system: UACC-257 melanoma
MCF7 breast = system: MCF7 breast
OVCAR-3 ovarian = system: OVCAR-3 ovarian
SF-295 CNS = system: SF-295 CNS
SK-MEL-5 melanoma = system: SK-MEL-5 melanoma
OVCAR-8 ovarian = system: OVCAR-8 ovarian
MDA-MB-435 = system: MDA-MB-435
SN12C renal = system: SN12C renal
HCT-15 colon = system: HCT-15 colon
COLO 205 colon = system: COLO 205 colon
SK-OV-3 ovarian = system: SK-OV-3 ovarian
U251 CNS = system: U251 CNS
RXF 393 renal = system: RXF 393 renal
EKVX NSCLC = system: EKVX NSCLC
MDA-N = system: MDA-N
SNB-75 CNS = system: SNB-75 CNS
OVCAR-4 ovarian = system: OVCAR-4 ovarian
NCI-H522 lung = system: NCI-H522 lung
SK-MEL-28 melanoma = system: SK-MEL-28 melanoma
BT-549 breast = system: BT-549 breast
KM12 colon = system: KM12 colon
HCT-116 colon = system: HCT-116 colon
OVCAR-5 ovarian = system: OVCAR-5 ovarian
T-47D breast = system: T-47D breast
HS 578T breast = system: HS 578T breast
SF-268 CNS = system: SF-268 CNS
MALME-3M melanoma = system: MALME-3M melanoma
M14 melanoma = system: M14 melanoma
TK-10 renal = system: TK-10 renal
LOX IMVI melanoma = system: LOX IMVI melanoma
NCI-H460 lung = system: NCI-H460 lung
HOP-92 NSCLC = system: HOP-92 NSCLC
NCI/ADR-RES ovarian = system: NCI/ADR-RES ovarian
ACHN renal = system: ACHN renal
A549 NSCLC = system: A549 NSCLC
CAKI-1 renal = system: CAKI-1 renal
RPMI-8226 leukemia = system: RPMI-8226 leukemia
DU-145 prostate = system: DU-145 prostate
NCI-H226 lung = system: NCI-H226 lung
PC-3 prostate = system: PC-3 prostate
UACC-62 melanoma = system: UACC-62 melanoma
HT29 colon = system: HT29 colon
CCRF-CEM leukemia = system: CCRF-CEM leukemia
SR leukemia = system: SR leukemia
SF-539 CNS = system: SF-539 CNS
IGROV1 ovarian = system: IGROV1 ovarian
HL-60(TB) leukemia = system: HL-60(TB) leukemia

**Q.** For `COC(=O)[C@H](Cc1ccccc1)NC(=O)N(CCC#N)CCCCN(CCC#N)C(=O)N[C@@H](Cc1ccccc1)C(=O)OC`, which TGI (NCI-H23 lung) is on record?
**A.** > 100 µM

**Q.** What about the TGI (SK-MEL-2 melanoma) of the same compound?
**A.** > 100 µM

**Q.** And the TGI (SW-620 colon)?
**A.** > 100 µM

**Q.** And the TGI (K-562 leukemia)?
**A.** > 100 µM

**Q.** And the TGI (HOP-62 NSCLC)?
**A.** > 100 µM

**Q.** And the TGI (SNB-19 CNS)?
**A.** > 100 µM

**Q.** What about the TGI (A498 renal) of the same compound?
**A.** > 100 µM

**Q.** What about the TGI (MDA-MB-231 breast) of the same compound?
**A.** > 100 µM

**Q.** What about the TGI (786-0 renal) of the same compound?
**A.** > 100 µM

**Q.** What about the TGI (HCC-2998 colon) of the same compound?
**A.** > 100 µM

**Q.** What about the TGI (MOLT-4 leukemia) of the same compound?
**A.** > 100 µM

**Q.** What about the TGI (UO-31 renal) of the same compound?
**A.** > 100 µM

**Q.** What about the TGI (UACC-257 melanoma) of the same compound?
**A.** > 100 µM

**Q.** And the TGI (MCF7 breast)?
**A.** > 100 µM

**Q.** And the TGI (OVCAR-3 ovarian)?
**A.** > 100 µM

**Q.** And the TGI (SF-295 CNS)?
**A.** > 100 µM

**Q.** And the TGI (SK-MEL-5 melanoma)?
**A.** > 100 µM

**Q.** What about the TGI (OVCAR-8 ovarian) of the same compound?
**A.** > 100 µM

**Q.** And the TGI (MDA-MB-435)?
**A.** > 100 µM

**Q.** And the TGI (SN12C renal)?
**A.** > 100 µM

**Q.** And the TGI (HCT-15 colon)?
**A.** > 100 µM

**Q.** What about the TGI (COLO 205 colon) of the same compound?
**A.** > 100 µM

**Q.** What about the TGI (SK-OV-3 ovarian) of the same compound?
**A.** > 100 µM

**Q.** What about the TGI (U251 CNS) of the same compound?
**A.** > 100 µM

**Q.** What about the TGI (RXF 393 renal) of the same compound?
**A.** > 100 µM

**Q.** And the TGI (EKVX NSCLC)?
**A.** > 100 µM

**Q.** What about the TGI (MDA-N) of the same compound?
**A.** > 100 µM

**Q.** What about the TGI (SNB-75 CNS) of the same compound?
**A.** > 79.1 µM

**Q.** And the TGI (OVCAR-4 ovarian)?
**A.** > 100 µM

**Q.** What about the TGI (NCI-H522 lung) of the same compound?
**A.** > 100 µM

**Q.** What about the TGI (SK-MEL-28 melanoma) of the same compound?
**A.** > 100 µM

**Q.** What about the TGI (BT-549 breast) of the same compound?
**A.** > 100 µM

**Q.** What about the TGI (KM12 colon) of the same compound?
**A.** > 100 µM

**Q.** What about the TGI (HCT-116 colon) of the same compound?
**A.** > 100 µM

**Q.** And the TGI (OVCAR-5 ovarian)?
**A.** > 100 µM

**Q.** And the TGI (T-47D breast)?
**A.** > 100 µM

**Q.** What about the TGI (HS 578T breast) of the same compound?
**A.** > 100 µM

**Q.** And the TGI (SF-268 CNS)?
**A.** > 100 µM

**Q.** And the TGI (MALME-3M melanoma)?
**A.** > 100 µM

**Q.** What about the TGI (M14 melanoma) of the same compound?
**A.** > 100 µM

**Q.** What about the TGI (TK-10 renal) of the same compound?
**A.** > 100 µM

**Q.** What about the TGI (LOX IMVI melanoma) of the same compound?
**A.** > 100 µM

**Q.** And the TGI (NCI-H460 lung)?
**A.** > 100 µM

**Q.** What about the TGI (HOP-92 NSCLC) of the same compound?
**A.** > 100 µM

**Q.** What about the TGI (NCI/ADR-RES ovarian) of the same compound?
**A.** > 100 µM

**Q.** What about the TGI (ACHN renal) of the same compound?
**A.** > 100 µM

**Q.** And the TGI (A549 NSCLC)?
**A.** > 100 µM

**Q.** And the TGI (CAKI-1 renal)?
**A.** > 100 µM

**Q.** What about the TGI (RPMI-8226 leukemia) of the same compound?
**A.** > 100 µM

**Q.** And the TGI (DU-145 prostate)?
**A.** > 100 µM

**Q.** What about the TGI (NCI-H226 lung) of the same compound?
**A.** > 100 µM

**Q.** And the TGI (PC-3 prostate)?
**A.** > 100 µM

**Q.** What about the TGI (UACC-62 melanoma) of the same compound?
**A.** > 100 µM

**Q.** `O=C(O)c1nc2ccc(Cl)cc2[nH]c1=O` was tested. Which TGI (NCI-H23 lung) did it give?
**A.** > 100 µM

**Q.** What about the TGI (SK-MEL-2 melanoma) of the same compound?
**A.** > 100 µM

**Q.** And the TGI (SW-620 colon)?
**A.** > 100 µM

**Q.** And the TGI (K-562 leukemia)?
**A.** > 100 µM

**Q.** And the TGI (HOP-62 NSCLC)?
**A.** > 100 µM

**Q.** What about the TGI (HT29 colon) of the same compound?
**A.** > 100 µM

**Q.** And the TGI (SNB-19 CNS)?
**A.** > 100 µM

**Q.** What about the TGI (A498 renal) of the same compound?
**A.** > 100 µM

**Q.** What about the TGI (MDA-MB-231 breast) of the same compound?
**A.** > 100 µM

**Q.** What about the TGI (786-0 renal) of the same compound?
**A.** > 100 µM

**Q.** And the TGI (HCC-2998 colon)?
**A.** > 100 µM

**Q.** What about the TGI (MOLT-4 leukemia) of the same compound?
**A.** > 100 µM

**Q.** And the TGI (UO-31 renal)?
**A.** > 100 µM

**Q.** And the TGI (UACC-257 melanoma)?
**A.** > 100 µM

**Q.** And the TGI (CCRF-CEM leukemia)?
**A.** > 100 µM

**Q.** And the TGI (MCF7 breast)?
**A.** > 100 µM

**Q.** And the TGI (OVCAR-3 ovarian)?
**A.** > 100 µM

**Q.** And the TGI (SR leukemia)?
**A.** > 100 µM

**Q.** And the TGI (SF-539 CNS)?
**A.** > 100 µM

**Q.** What about the TGI (SF-295 CNS) of the same compound?
**A.** > 100 µM

**Q.** What about the TGI (SK-MEL-5 melanoma) of the same compound?
**A.** > 100 µM

**Q.** And the TGI (OVCAR-8 ovarian)?
**A.** > 100 µM

**Q.** And the TGI (MDA-MB-435)?
**A.** > 100 µM

**Q.** And the TGI (SN12C renal)?
**A.** > 100 µM

**Q.** What about the TGI (HCT-15 colon) of the same compound?
**A.** > 100 µM

**Q.** And the TGI (COLO 205 colon)?
**A.** > 100 µM

**Q.** And the TGI (SK-OV-3 ovarian)?
**A.** > 100 µM

**Q.** And the TGI (U251 CNS)?
**A.** > 100 µM

**Q.** What about the TGI (RXF 393 renal) of the same compound?
**A.** > 100 µM

**Q.** What about the TGI (EKVX NSCLC) of the same compound?
**A.** > 100 µM

**Q.** What about the TGI (MDA-N) of the same compound?
**A.** > 100 µM

**Q.** What about the TGI (OVCAR-4 ovarian) of the same compound?
**A.** > 100 µM

**Q.** And the TGI (NCI-H522 lung)?
**A.** > 100 µM

**Q.** What about the TGI (SK-MEL-28 melanoma) of the same compound?
**A.** > 100 µM

**Q.** And the TGI (BT-549 breast)?
**A.** > 100 µM

**Q.** What about the TGI (IGROV1 ovarian) of the same compound?
**A.** > 100 µM

**Q.** What about the TGI (KM12 colon) of the same compound?
**A.** > 100 µM

**Q.** And the TGI (HCT-116 colon)?
**A.** > 100 µM

**Q.** What about the TGI (OVCAR-5 ovarian) of the same compound?
**A.** > 100 µM

**Q.** And the TGI (T-47D breast)?
**A.** > 100 µM

**Q.** What about the TGI (HS 578T breast) of the same compound?
**A.** > 100 µM

**Q.** What about the TGI (SF-268 CNS) of the same compound?
**A.** > 100 µM

**Q.** And the TGI (MALME-3M melanoma)?
**A.** > 100 µM

**Q.** What about the TGI (M14 melanoma) of the same compound?
**A.** > 100 µM

**Q.** What about the TGI (TK-10 renal) of the same compound?
**A.** > 100 µM

**Q.** What about the TGI (LOX IMVI melanoma) of the same compound?
**A.** > 100 µM

**Q.** And the TGI (NCI-H460 lung)?
**A.** > 100 µM

**Q.** And the TGI (HOP-92 NSCLC)?
**A.** > 100 µM

**Q.** What about the TGI (NCI/ADR-RES ovarian) of the same compound?
**A.** > 100 µM

**Q.** And the TGI (ACHN renal)?
**A.** > 100 µM

**Q.** And the TGI (HL-60(TB) leukemia)?
**A.** > 100 µM

**Q.** And the TGI (A549 NSCLC)?
**A.** > 100 µM

**Q.** What about the TGI (CAKI-1 renal) of the same compound?
**A.** > 100 µM

**Q.** What about the TGI (RPMI-8226 leukemia) of the same compound?
**A.** > 100 µM

**Q.** And the TGI (DU-145 prostate)?
**A.** > 100 µM

**Q.** What about the TGI (NCI-H226 lung) of the same compound?
**A.** > 100 µM

**Q.** And the TGI (PC-3 prostate)?
**A.** > 100 µM

**Q.** What about the TGI (UACC-62 melanoma) of the same compound?
**A.** > 100 µM
